Data reported in PubChem BioAssay AID2060890 (Molecular Pharmacology Branch, DTP, NCI, 2025).
pIC50: −log10 of the molar value.

Tested on: LG0703-F948-PDC complex spheroid viability
Assay: Anticancer human tumor LG0703-F948-PDC patient-derived lung adenocarcinoma cell line growth inhibition [RAS]
Settings: for pIC50: curve of first compound; for viability, T/C: stronger effect = lower value
How it was run: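 Tumour cells grown as complex spheroids with HUVEC endothelial cells and mesenchymal stem cells, treated with RAS pathway inhibitor combinations. Each agent spans half-log steps from near clinical Cmax, or 10 microM where Cmax is unknown.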

[1] = second compound 0.000949 µM, first compound 0.000949 µM
[2] = second compound 0.000949 µM, first compound 0.003 µM
[3] = second compound 0.000949 µM, first compound 0.00949 µM
[4] = second compound 0.000949 µM, first compound 0.03 µM
[5] = second compound 0.000949 µM, first compound 0.0949 µM
[6] = second compound 0.000949 µM, first compound 0.3 µM
[7] = second compound 0.003 µM, first compound 0.000949 µM
[8] = second compound 0.003 µM, first compound 0.003 µM
[9] = second compound 0.003 µM, first compound 0.00949 µM
[10] = second compound 0.003 µM, first compound 0.03 µM
[11] = second compound 0.003 µM, first compound 0.0949 µM
[12] = second compound 0.003 µM, first compound 0.3 µM
[13] = second compound 0.00949 µM, first compound 0.000949 µM
[14] = second compound 0.00949 µM, first compound 0.003 µM
[15] = second compound 0.00949 µM, first compound 0.00949 µM
[16] = second compound 0.00949 µM, first compound 0.03 µM
[17] = second compound 0.00949 µM, first compound 0.0949 µM
[18] = second compound 0.00949 µM, first compound 0.3 µM
[19] = second compound 0.03 µM, first compound 0.000949 µM
[20] = second compound 0.03 µM, first compound 0.003 µM
[21] = second compound 0.03 µM, first compound 0.00949 µM
[22] = second compound 0.03 µM, first compound 0.03 µM
[23] = second compound 0.03 µM, first compound 0.0949 µM
[24] = second compound 0.03 µM, first compound 0.3 µM
[25] = second compound 0.0949 µM, first compound 0.000949 µM
[26] = second compound 0.0949 µM, first compound 0.003 µM
[27] = second compound 0.0949 µM, first compound 0.00949 µM
[28] = second compound 0.0949 µM, first compound 0.03 µM
[29] = second compound 0.0949 µM, first compound 0.0949 µM
[30] = second compound 0.0949 µM, first compound 0.3 µM
[31] = second compound 0.3 µM, first compound 0.000949 µM
[32] = second compound 0.3 µM, first compound 0.003 µM
[33] = second compound 0.3 µM, first compound 0.00949 µM
[34] = second compound 0.3 µM, first compound 0.03 µM
[35] = second compound 0.3 µM, first compound 0.0949 µM
[36] = second compound 0.3 µM, first compound 0.3 µM
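Note: spheroids exposed to agents for 7 days.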
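Throughout, for viability, T/C: 100% = DMSO vehicle wells.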

For `C=CC(=O)N1CCN(c2nc(OCC3CCCN3C)nc3c(F)c(-c4nc(N)cc(C)c4C(F)(F)F)c(Cl)cc23)C(C)C1` (stereo unspecified) + CCn1c(-c2cccnc2C(C)OC)c2c3cc(ccc31)N1CCOC(CC(NC(=O)C(C(C)C)N(C)C(=O)C3(F)CCN(C(=O)C#CC(C)(C)N(C)C)CC3)C(=O)N3CCCC(N3)C(=O)OCC(C)(C)C2)C1, the pIC50 (second compound 0.000949 µM) was under 6.00, the pIC50 (second compound 0.003 µM) was under 6.00 and the pIC50 (second compound 0.00949 µM) was under 6.00. The pIC50 (second compound 0.03 µM) was under 6.00, the pIC50 (second compound 0.0949 µM) was under 6.00 and the pIC50 (second compound 0.3 µM) was over 8.50. The viability, T/C (second compound 0.000949 µM, first compound 0.00316 µM) was 91.1%, the viability, T/C (second compound 0.000949 µM, first compound 0.01 µM) was 92.5% and the viability, T/C (second compound 0.000949 µM, first compound 0.0316 µM) was 90.4%. For the same compound, the viability, T/C (second compound 0.000949 µM, first compound 0.1 µM) was 88%, the viability, T/C (second compound 0.000949 µM, first compound 0.316 µM) was 89.5% and the viability, T/C (second compound 0.000949 µM, first compound 1 µM) was 116%. It also gave a viability, T/C (second compound 0.003 µM, first compound 0.00316 µM) of 95.5%, a viability, T/C (second compound 0.003 µM, first compound 0.01 µM) of 85.6% and a viability, T/C (second compound 0.003 µM, first compound 0.0316 µM) of 99.5%. It also gave a viability, T/C (second compound 0.003 µM, first compound 0.1 µM) of 87.7%, a viability, T/C (second compound 0.003 µM, first compound 0.316 µM) of 80.7% and a viability, T/C (second compound 0.003 µM, first compound 1 µM) of 89.6%. For the same compound, the viability, T/C (second compound 0.00949 µM, first compound 0.00316 µM) was 89.6%, the viability, T/C (second compound 0.00949 µM, first compound 0.01 µM) was 95.1% and the viability, T/C (second compound 0.00949 µM, first compound 0.0316 µM) was 88.4%. The viability, T/C (second compound 0.00949 µM, first compound 0.1 µM) was 99%, the viability, T/C (second compound 0.00949 µM, first compound 0.316 µM) was 101% and the viability, T/C (second compound 0.00949 µM, first compound 1 µM) was 87.3%. For the same compound, the viability, T/C (second compound 0.03 µM, first compound 0.00316 µM) was 91.1%, the viability, T/C (second compound 0.03 µM, first compound 0.01 µM) was 89.3% and the viability, T/C (second compound 0.03 µM, first compound 0.0316 µM) was 78.1%. The viability, T/C (second compound 0.03 µM, first compound 0.1 µM) was 92.6%, the viability, T/C (second compound 0.03 µM, first compound 0.316 µM) was 107% and the viability, T/C (second compound 0.03 µM, first compound 1 µM) was 81.6%. The viability, T/C (second compound 0.0949 µM, first compound 0.00316 µM) was 78.2%, the viability, T/C (second compound 0.0949 µM, first compound 0.01 µM) was 79.1% and the viability, T/C (second compound 0.0949 µM, first compound 0.0316 µM) was 76.7%. The viability, T/C (second compound 0.0949 µM, first compound 0.1 µM) was 85.3%, the viability, T/C (second compound 0.0949 µM, first compound 0.316 µM) was 77.3% and the viability, T/C (second compound 0.0949 µM, first compound 1 µM) was 77.4%. The viability, T/C (second compound 0.3 µM, first compound 0.00316 µM) was 51.9%, the viability, T/C (second compound 0.3 µM, first compound 0.01 µM) was 47.8% and the viability, T/C (second compound 0.3 µM, first compound 0.0316 µM) was 47.7%. The viability, T/C (second compound 0.3 µM, first compound 0.1 µM) was 44.4%, the viability, T/C (second compound 0.3 µM, first compound 0.316 µM) was 59.9% and the viability, T/C (second compound 0.3 µM, first compound 1 µM) was 50.5%.
In the case of `CC1(C)CCC(Nc2ncc(C(F)(F)F)c(-c3c[nH]c4c(P(C)(C)=O)c(C#N)ccc34)n2)CN1` (stereo unspecified) + CCn1c(-c2cccnc2C(C)OC)c2c3cc(ccc31)N1CCOC(CC(NC(=O)C(C(C)C)N(C)C(=O)C3(F)CCN(C(=O)C#CC(C)(C)N(C)C)CC3)C(=O)N3CCCC(N3)C(=O)OCC(C)(C)C2)C1, the pIC50 (second compound 0.000949 µM) was under 6.52, the pIC50 (second compound 0.003 µM) was under 6.52 and the pIC50 (second compound 0.00949 µM) was under 6.52. For the same compound, the pIC50 (second compound 0.03 µM) was under 6.52, the pIC50 (second compound 0.0949 µM) was under 6.52 and the pIC50 (second compound 0.3 µM) was over 9.02. The viability, T/C [1] was 83.4%, the viability, T/C [2] was 70.4% and the viability, T/C [3] was 67.1%. For the same compound, the viability, T/C [4] was 60.1%, the viability, T/C [5] was 67.3% and the viability, T/C [6] was 56.5%. The viability, T/C [7] was 89.2%, the viability, T/C [8] was 84.9% and the viability, T/C [9] was 58.1%. The viability, T/C [10] was 62.2%, the viability, T/C [11] was 61.5% and the viability, T/C [12] was 68.7%. For the same compound, the viability, T/C [13] was 75%, the viability, T/C [14] was 72.7% and the viability, T/C [15] was 77.8%. The viability, T/C [16] was 57.7%, the viability, T/C [17] was 64.8% and the viability, T/C [18] was 67.2%. It also gave a viability, T/C [19] of 86.5%, a viability, T/C [20] of 79.5% and a viability, T/C [21] of 62.6%. It also gave a viability, T/C [22] of 66.1%, a viability, T/C [23] of 59.4% and a viability, T/C [24] of 60.4%. It also gave a viability, T/C [25] of 82.9%, a viability, T/C [26] of 68.2% and a viability, T/C [27] of 65%. It also gave a viability, T/C [28] of 55%, a viability, T/C [29] of 65.7% and a viability, T/C [30] of 63.7%. The viability, T/C [31] was 39.1%, the viability, T/C [32] was 49.9% and the viability, T/C [33] was 48.5%. It also gave a viability, T/C [34] of 46.1%, a viability, T/C [35] of 48.8% and a viability, T/C [36] of 46.2%.
Work on `CCc1c2c(nc3ccc(O)cc13)-c1cc3c(c(=O)n1C2)COC(=O)[C@]3(O)CC` + CCn1c(-c2cccnc2C(C)OC)c2c3cc(ccc31)N1CCOC(CC(NC(=O)C(C(C)C)N(C)C(=O)C3(F)CCN(C(=O)C#CC(C)(C)N(C)C)CC3)C(=O)N3CCCC(N3)C(=O)OCC(C)(C)C2)C1 yielded a pIC50 (second compound 0.000949 µM) of 7.08, a pIC50 (second compound 0.003 µM) of 7.11 and a pIC50 (second compound 0.00949 µM) of 7.20. For the same compound, the pIC50 (second compound 0.03 µM) was 7.29, the pIC50 (second compound 0.0949 µM) was 7.70 and the pIC50 (second compound 0.3 µM) was over 9.02. It also gave a viability, T/C [1] of 123%, a viability, T/C [2] of 86.9% and a viability, T/C [3] of 103%. For the same compound, the viability, T/C [4] was 66%, the viability, T/C [5] was 43.3% and the viability, T/C [6] was 30.6%. For the same compound, the viability, T/C [7] was 130%, the viability, T/C [8] was 102% and the viability, T/C [9] was 103%. The viability, T/C [10] was 60.5%, the viability, T/C [11] was 48.1% and the viability, T/C [12] was 30.3%. For the same compound, the viability, T/C [13] was 111%, the viability, T/C [14] was 103% and the viability, T/C [15] was 104%. For the same compound, the viability, T/C [16] was 62.4%, the viability, T/C [17] was 46.8% and the viability, T/C [18] was 26%. The viability, T/C [19] was 113%, the viability, T/C [20] was 93.9% and the viability, T/C [21] was 87.5%. It also gave a viability, T/C [22] of 56%, a viability, T/C [23] of 40.4% and a viability, T/C [24] of 27.4%. For the same compound, the viability, T/C [25] was 85.7%, the viability, T/C [26] was 91.2% and the viability, T/C [27] was 63.3%. It also gave a viability, T/C [28] of 42.7%, a viability, T/C [29] of 27.1% and a viability, T/C [30] of 22.9%. The viability, T/C [31] was 44%, the viability, T/C [32] was 49.9% and the viability, T/C [33] was 46.3%. The viability, T/C [34] was 25.8%, the viability, T/C [35] was 19.2% and the viability, T/C [36] was 14.1%.
